pIC50: −log10 of the molar value. Where a name gives a salt, the structure may show the parent alone.
Key:
WEE1 = target: T1, WEE1 (Homo sapiens, UniProt P30291); experiment: Selectivity versus WEE1 assay (ADP-Glo enzymatic assay); format: biochemical; conditions: banded; for pIC50: ADP-Glo, 15 nM WEE1, 60 minutes at 26° C.; for PKMYT1 vs. WEE1 selectivity: fold difference in selectivity for PKMYT1 over WEE1, ">N" = at least in this band but could be higher
T1 construct: purchased Thermo Fisher PR7373A
T1 sequence (P30291 whole entry): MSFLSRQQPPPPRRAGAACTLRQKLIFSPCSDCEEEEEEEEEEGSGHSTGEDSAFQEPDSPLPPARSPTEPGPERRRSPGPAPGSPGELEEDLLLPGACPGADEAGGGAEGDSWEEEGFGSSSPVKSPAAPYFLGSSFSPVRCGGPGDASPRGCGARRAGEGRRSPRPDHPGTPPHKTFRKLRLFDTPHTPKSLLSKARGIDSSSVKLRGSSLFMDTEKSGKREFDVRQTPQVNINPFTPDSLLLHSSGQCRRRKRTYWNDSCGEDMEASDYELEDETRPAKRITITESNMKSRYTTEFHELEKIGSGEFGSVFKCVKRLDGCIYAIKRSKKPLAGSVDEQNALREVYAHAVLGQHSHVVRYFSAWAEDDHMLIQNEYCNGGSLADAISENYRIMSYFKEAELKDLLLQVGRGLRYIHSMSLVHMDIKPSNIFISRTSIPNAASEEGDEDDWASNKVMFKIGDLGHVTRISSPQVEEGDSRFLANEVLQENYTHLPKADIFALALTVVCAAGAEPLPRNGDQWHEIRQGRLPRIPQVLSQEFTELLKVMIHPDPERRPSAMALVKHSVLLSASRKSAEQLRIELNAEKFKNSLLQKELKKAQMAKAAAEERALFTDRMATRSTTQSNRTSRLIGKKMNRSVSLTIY
Method in brief: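 Compounds were pre-dispensed, enzyme (15 nM final) was added in pH 7.5 HEPES buffer, and ATP ([…]) then started a 60 min incubation at 26° C. Afterwards ADP-Glo reagents were added in turn and luminescence was measured to derive IC50 values.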

Human PKMYT1 = target: T2, Human PKMYT1 (Homo sapiens, UniProt Q99640); experiment: PKMYT1 biochemical ADP-Glo enzymatic assay; conditions: ADP-Glo; 15 nM PKMYT1 kinase domain, 500 µM ATP, 60 minutes at 26° C.; banded
T2 construct: Human PKMYT1 75-362 was cloned as a TEV cleavable 6xHis fusion; 6xHis (TEV cleavable) (cleaved yes); made in house; host or cells: bacterial cells
T2 sequence (Q99640 75-362): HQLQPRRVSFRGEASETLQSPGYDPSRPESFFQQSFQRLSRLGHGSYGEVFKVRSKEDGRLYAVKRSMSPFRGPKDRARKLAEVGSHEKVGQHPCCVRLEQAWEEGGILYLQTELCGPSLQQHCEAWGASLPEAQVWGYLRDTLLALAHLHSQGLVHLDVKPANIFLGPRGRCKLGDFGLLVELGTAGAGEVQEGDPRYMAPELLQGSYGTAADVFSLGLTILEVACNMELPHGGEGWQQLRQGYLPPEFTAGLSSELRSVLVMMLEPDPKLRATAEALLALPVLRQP
Method in brief: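 Compounds were titrated over 10 points (3-fold steps), then 15 nM purified PKMYT1 kinase domain (aa 75-362) and 500 µM ATP were added in pH 7.5 HEPES buffer. After 60 min at 26 °C, remaining ATP was depleted and ADP converted to luminescence for IC50 fitting.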

Structure (SMILES)	pIC50 (WEE1)	PKMYT1 vs. WEE1 selectivity (WEE1)	pIC50 (Human PKMYT1)
Cc1csc(Nc2ncc(C(=O)Nc3c(C)ccc(O)c3C)s2)n1 [BAA-264, N-(3-hydroxy-2,6-dimethylphenyl)-2-((4-methylthiazol-2-yl)amino)thiazole-5-carboxamide]	< 4.96	X (100-<1000 fold)	> 7.30
Cc1ccc(O)c(C)c1NC(=O)c1cnc(Nc2nc(C)c(C)s2)s1 [BAA-266, 2-((4,5-dimethylthiazol-2-yl)amino)-N-(3-hydroxy-2,6-dimethylphenyl)thiazole-5-carboxamide]	< 4.96	X (100-<1000 fold)	6.00 to 7.30
Cc1ccc(O)c(C)c1NC(=O)c1cnc(Nc2nn(C)c3cc(Br)ccc23)s1 [BAA-267, 2-((6-bromo-1-methyl-1H-indazol-3-yl)amino)-N-(3-hydroxy-2,6-dimethylphenyl)thiazole-5-carboxamide]	< 4.96	X (100-<1000 fold)	6.00 to 7.30
Cc1cn(C2CN(C(=O)OC(C)(C)C)C2)nc1Nc1ncc(C(=O)Nc2c(C)ccc(O)c2C)s1 [BAA-272, tert-butyl 3-(3-((5-((3-hydroxy-2,6-dimethylphenyl)carbamoyl)thiazol-2-yl)amino)-4-methyl-1H-pyrazol-1-yl)azetidine-1-carboxylate]	6.00 to 7.30	W (10-<100 fold)	> 7.30
Cc1ccc(O)c(C)c1NC(=O)c1cnc(Nc2ccc(S(C)(=O)=O)cc2)s1 [BAA-275, N-(3-Hydroxy-2,6-dimethylphenyl)-2-((4-(methylsulfonyl)phenyl)amino)thiazole-5-carboxamide]	< 4.96	X (100-<1000 fold)	> 7.30
Cc1ccc(O)c(C)c1NC(=O)c1cnc(Nc2cccc(S(C)(=O)=O)c2)s1 [BAA-276, N-(3-hydroxy-2,6-dimethylphenyl)-2-((3-(methylsulfonyl)phenyl)amino)thiazole-5-carboxamide]	< 4.96	Y (1000-5000 fold)	> 7.30
Cc1ccc(O)c(C)c1NC(=O)c1cnc(Nc2ccc(F)cc2F)s1 [BAA-277, 2-((2,4-difluorophenyl)amino)-N-(3-hydroxy-2,6-dimethylphenyl)thiazole-5-carboxamide]	< 4.96	X (100-<1000 fold)	6.00 to 7.30
Cc1ccc(O)c(C)c1NC(=O)c1cnc(Nc2ccc(C(F)(F)F)cc2)s1 [BAA-278, N-(3-hydroxy-2,6-dimethylphenyl)-2-((4-(trifluoromethyl)phenyl)amino)thiazole-5-carboxamide]	< 4.96	W (10-<100 fold)	4.96 to 6.00
Cc1ccc(O)c(C)c1NC(=O)c1cnc(Nc2ncc(C(F)(F)F)cn2)s1 [BAA-279, N-(3-hydroxy-2,6-dimethylphenyl)-2-((5-(trifluoromethyl)pyrimidin-2-yl)amino)thiazole-5-carboxamide]	< 4.96	Y (1000-5000 fold)	> 7.30
Cc1ccc(O)c(C)c1NC(=O)c1cnc(Nc2ccc(C(C)(C)C)cc2)s1 [BAA-281, 2-((4-(tert-butyl)phenyl)amino)-N-(3-hydroxy-2,6-dimethylphenyl)thiazole-5-carboxamide]	< 4.96	X (100-<1000 fold)	6.00 to 7.30
Cc1ccc(O)c(C)c1NC(=O)c1cnc(Nc2cccc(S(=O)(=O)C(F)(F)F)c2)s1 [BAA-284, N-(3-hydroxy-2,6-dimethylphenyl)-2-((3-((trifluoromethyl)sulfonyl)phenyl)amino) thiazole-5-carboxamide]	< 4.96	W (10-<100 fold)	4.96 to 6.00
Cc1ccc(O)c(C)c1NC(=O)c1cnc(Nc2ccc(S(=O)(=O)C(F)(F)F)cc2)s1 [BAA-285, N-(3-hydroxy-2,6-dimethylphenyl)-2-((4. ((trifluoromethyl)sulfonyl)phenyl)amino) thiazole-5-carboxamide]	< 4.96	W (10-<100 fold)	4.96 to 6.00
Cc1ccc(O)c(C)c1NC(=O)c1cnc(Nc2cccc(S(=O)(=O)N3CC(F)(F)C(F)(F)C3)c2)s1 [BAA-286, N-(3-hydroxy-2,6-dimethylphenyl)-2-((3-((3,3,4,4-tetrafluoropyrrolidin-1-yl)sulfonyl)phenyl)amino)thiazole-5-carboxamide]	< 4.96	W (10-<100 fold)	4.96 to 6.00
Cc1ccc(O)c(C)c1NC(=O)c1cnc(Nc2cc(Cl)nc(C(F)(F)F)n2)s1 [BAA-287, 2-((6-chloro-2-(trifluoromethyl)pyrimidin-4-yl)amino)-N-(3-hydroxy-2,6-dimethylphenyl)thiazole-5-carboxamide]	< 4.96	Y (1000-5000 fold)	> 7.30
Cc1ccc(O)c(C)c1NC(=O)c1cnc(Nc2ccc3cc(F)ccc3n2)s1 [BAA-288, 2-((6-fluoroquinolin-2-yl)amino)-N-(3-hydroxy-2,6-dimethylphenyl)thiazole-5-carboxamide]	< 4.96	X (100-<1000 fold)	6.00 to 7.30
Cc1ccc(O)c(C)c1NC(=O)c1cnc(Nc2cccc(C(=O)N3CC4CCC3C4)c2)s1 (stereo not drawn) [BAA-289, 2-((3-(2-azabicyclo[2.2.1]heptane-2-carbonyl)phenyl)amino)-N-(3-hydroxy-2,6-dimethylphenyl)thiazole-5-carboxamide]	4.96 to 6.00	X (100-<1000 fold)	> 7.30
Cc1ccc(O)c(C)c1NC(=O)c1cnc(Nc2nccc(-c3ccc(Cl)cc3)n2)s1 [BAA-293, 2-((4-(4-chlorophenyl)pyrimidin-2-yl)amino)-N-(3-hydroxy-2,6-dimethylphenyl)thiazole-5-carboxamide]	< 4.96	Y (1000-5000 fold)	> 7.30
Cc1ccc(O)c(C)c1NC(=O)c1cnc(Nc2nc(C)c(Br)c(C)n2)s1 [BAA-295, 2-((5-bromo-4,6-dimethylpyrimidin-2-yl)amino)-N-(3-hydroxy-2,6-dimethylphenyl)thiazole-5-carboxamide]	< 4.96	Y (1000-5000 fold)	6.00 to 7.30

Next, values leading:

pIC50 (WEE1)	PKMYT1 vs. WEE1 selectivity (WEE1)	pIC50 (Human PKMYT1)	Structure (SMILES)
< 4.96	X (100-<1000 fold)	> 7.30	Cc1cnc(Nc2ncc(C(=O)Nc3c(C)ccc(O)c3C)s2)s1 [BAA-262, N-(3-hydroxy-2,6-dimethylphenyl)-2-((5-methylthiazol-2-yl)amino)thiazole-5-carboxamide]
< 4.96	X (100-<1000 fold)	6.00 to 7.30	Cc1nnc(Nc2ncc(C(=O)Nc3c(C)ccc(O)c3C)s2)s1 [BAA-263, N-(3-hydroxy-2,6-dimethylphenyl)-2-((5-methyl-1,3,4-thiadiazol-2-yl)amino)thiazole-5-carboxamide]
< 4.96	X (100-<1000 fold)	> 7.30	Cc1ccc(O)c(C)c1NC(=O)c1cnc(Nc2ncn(C)n2)s1 [BAA-265, N-(3-hydroxy-2,6-dimethylphenyl)-2-((1-methyl-1H-1,2,4-triazol-3-yl)amino)thiazole-5-carboxamide]
6.00 to 7.30	W (10-<100 fold)	> 7.30	Cc1cn(C2CNC2)nc1Nc1ncc(C(=O)Nc2c(C)ccc(O)c2C)s1 [BAA-273, 2-((1-(azetidin-3-yl)-4-methyl-1H-pyrazol-3-yl)amino)-N-(3-hydroxy-2,6-dimethylphenyl)thiazole-5-carboxamide hydrochloride]
< 4.96	Y (1000-5000 fold)	6.00 to 7.30	Cc1ccc(O)c(C)c1NC(=O)c1cnc(Nc2ccc(C(F)(F)F)cn2)s1 [BAA-280, N-(3-hydroxy-2,6-dimethylphenyl)-2-((5-(trifluoromethyl)pyridin-2-yl)amino)thiazole-5-carboxamide]
< 4.96	W (10-<100 fold)	4.96 to 6.00	Cc1ccc(O)c(C)c1NC(=O)c1cnc(Nc2ccc(F)c(C#N)c2)s1 [BAA-282, 2-((3-cyano-4-fluorophenyl)amino)-N-(3-hydroxy-2,6-dimethylphenyl)thiazole-5-carboxamide]
< 4.96	W (10-<100 fold)	4.96 to 6.00	Cc1ccc(O)c(C)c1NC(=O)c1cnc(Nc2ccc(C#N)c(F)c2)s1 [BAA-283, 2-((4-cyano-3-fluorophenyl)amino)-N-(3-hydroxy-2,6-dimethylphenyl)thiazole-5-carboxamide]
< 4.96	X (100-<1000 fold)	6.00 to 7.30	Cc1ccc(O)c(C)c1NC(=O)c1cnc(Nc2cc3cc(F)ccc3cn2)s1 [BAA-290, 2-((6-fluoroisoquinolin-3-yl)amino)-N-(3-hydroxy-2,6-dimethylphenyl)thiazole-5-carboxamide]

Reference: patent US20260297042A1, “BIARYLAMIDE DERIVATIVES AND THEIR USE AS PKMYT1 INHIBITORS” (CANCER RESEARCH TECHNOLOGY LIMITED, priority 2023, published 2026)
